Measurements: ChEMBL document CHEMBL1128765, “Growth inhibitory effect of naphthofuran and naphthofuranquinone derivatives on Trypanosoma cruzi epimastigotes” (Bioorg Med Chem Lett, 1995)

Key:
[1] = test system: Trypanosoma cruzi; experiment: Percent inhibition of growth against Trypanosoma cruzi epimastigotes, Y strain at concentration 4 ug/ml (13-17 uM); type: functional; conditions: read-out: GI
[2] = test system: Trypanosoma cruzi; experiment: In vitro antitrypanosomal activity against Trypanosoma cruzi epimastigote, CL strain; type: functional, organism-based
[3] = test system: Trypanosoma cruzi; experiment: In vitro for antitrypanosomal activity against Trypanosoma cruzi epimastigote, SC-28 strain; type: functional, organism-based
[4] = test system: Trypanosoma cruzi; experiment: In vitro for antitrypanosomal activity against Trypanosoma cruzi epimastigote, Ystrain; type: functional, organism-based

Row | IC50 [2] | IC50 [3] | IC50 [4] | Compound | inhibition of growth at 4 µg/mL [1]
1 |  |  |  | COc1ccc2c(c1OC)C(=O)c1oc(C(C)O)cc1C2=O (configuration not stated) | 22%
2 |  |  |  | COc1ccc(C(=O)O)c(Cc2ccco2)c1 | 0%
3 | 530 nM | 570 nM | 490 nM | COc1ccc2c(c1)C(=O)c1oc(C(C)=O)cc1C2=O | 100%
4 |  |  |  | COc1cccc2c1C(c1ccco1)OC2=O (configuration not stated) | 19%
5 | 2650 nM | 3050 nM | 2820 nM | COc1ccc2c(c1)C(=O)c1cc(C(C)O)oc1C2=O (configuration not stated) | 100%
6 | 1860 nM | 2170 nM | 1920 nM | COc1ccc2c(OC(C)=O)c3cc(C(C)=O)oc3cc2c1 | 100%
7 |  |  |  | COc1ccc2c(c1OC)C(=O)c1oc(C(C)=O)cc1C2=O | 45%
8 |  |  |  | COc1ccc2c(c1OC)C(=O)c1ccoc1C2=O | 45%
9 |  |  |  | COc1ccc2c(c1)C(c1ccco1)OC2=O (configuration not stated) | 18%
10 | 2550 nM | 2800 nM | 3020 nM | O=C1C(=O)c2ccoc2-c2ccccc21 | 100%
11 |  |  |  | COc1ccc2c(c1)C(c1ccc(C(C)=O)o1)OC2=O (configuration not stated) | 17%
12 |  |  |  | COc1ccc2c(c1OC)C(=O)c1occc1C2=O | 25%

Row | Compound | IC50 [2] | IC50 [3] | IC50 [4] | inhibition of growth at 4 µg/mL [1]
13 | O=C(Cn1ccnc1[N+](=O)[O-])NCc1ccccc1 [BENZNIDAZOLE] | 8950 nM | 8970 nM | 8050 nM | 100%
14 | CC1CS(=O)(=O)CCN1/N=C/c1ccc([N+](=O)[O-])o1 (configuration not stated) [NIFURTIMOX] | 3810 nM | 3550 nM | 3290 nM | 100%
